For this assay, the system named is Pseudomonas aeruginosa PAO1. Put plainly: MBEC assay, biofilm formation of P. aeruginosa PAO1. Type of assay: cell-based. To be noted: compound concentration 100 μM, class symbols. Here is the method:
The compound to be tested was dissolved in DMSO to obtain a concentration that was 100 times that of the final concentration required (1 mM for the 10 μM assay and 10 mM for the 100 μM assay). 1.5 μL of the above solution was placed into each well of a 96 well plate (final volume in each well=150 μL, final DMSO concentration of 1% (v/v)).
To grow the organism and form a biofilm, a cryogenic stock of the test organism (at −70° C.) was used. A first sub-culture was streaked out onto TSA (tryptic soy agar), upon which the plate was incubated at 35±2° C. for 24 hours and stored wrapped in parafilm at 4° C. afterwards. From this first sub-culture, a second sub-culture was streaked out onto TSA. The plate was incubated at 35±2° C. for 24 hours. The second sub-culture was used within 24 hours starting from the time it was first removed from incubation. Using the second sub-culture an inoculum in 3 mL sterile water that matches a 0.5 McFarland Standard (1.5×10^8 cells per mL) was created in a glass test tube using a sterile cotton swab. 2.2 mL of this solution was diluted in 22 mL 100% TSB (tryptic soy broth) medium to a cell density of approximately […]. The diluted organism was inverted 3-5 times to achieve uniform mixing of the organism. One sample (100 μl) of the diluted organism was used for an inoculum check by serially diluting and spot plating on TSA.
To prepare a challenge plate, […] of the diluted organism was added to each well of a 96 well plate except the sterility control wells. The test compounds were added to the wells to make up final concentrations of 10 μM and […] (1.5 μL/well) in the designated location in the test plate. 128.5 μL of 100% universal neutralizer (1% Tween 80 in Cation Adjusted Mueller Hinton Broth, CAMHB) was placed in each of the wells. 130 μL of media was added to the growth control wells. 128.5 μL of media+1.5 μL of DMSO were added to a second set of growth control wells. 150 μL of media was added to the sterility controls. Each sample was run in triplicate. The plate was covered by a lid with a peg per well and wrapped in parafilm and placed on a shaker in a humidified incubator (GeneVac) at 35±+2° C. for 24 hours set at 110 rpm.
Rinse plate(s) of 0.9% saline (200 μL per well) were prepared in a sterile 96 well microtitre plate. Lid-associated pegs were rinsed in 0.9% saline for approximately 1-2 minutes. The peg lid was transferred to the recovery media (1.0% Tween 80 in CAMHB) then sonicated for 30 minutes to dislodge surviving biofilm. Following sonication, 100 μL from each well of the 96 well plate was placed into the first 12 wells of the first row of a 96 well microtiter plate. 180 μl of 0.9% sterile saline was placed in the remaining rows. A serial dilution (10^0-10^7) was prepared by moving 20 μl down each of the 8 rows. 20 μl from each well was removed and spot plated on a prepared TSA. In the remaining recovery plate, 100 μl of fresh growth media (1.0% Tween 80 in CAMHB) was placed in each well to replace the amount removed. The recovery plate was covered with a regular lid and incubated at 35±2° C. for 24 hours and read visually to confirm antimicrobial activity of the test compounds.
The compounds of the present disclosure have been tested regarding their efficiency to inhibit biofilm formation of Staphylococcus aureus U of C#18 (MRSA), Staphylococcus aureus 456 (MRSA), Staphylococcus epidermidis RP62A, and Pseudomonas aeruginosa PAO1.

Drawing on US20090192192A1, “INHIBITORS OF BIOFILM FORMATION OF GRAM-POSITIVE AND GRAM-NEGATIVE BACTERIA” (priority 2007, published 2009), this text covers inhibition for 42 compounds.

Where only a bound is given, the exact number is not on record here.

Compound `CCCCCCCCCC(=O)NC(=O)Nc1ccnn1C` [Example 99, N-(1-methylpyrazol-5-ylcarbamoyl)decanamide] showed an inhibition at 100 µM of 20 to 50%.

`CCCCCCCCCCCC(=O)N1CCC(C(=O)N(C(C)C)C(C)C)C1` (stereo not drawn) [Example 150, 1-dodecanoyl-N,N-diisopropylpyrrolidine-3-carboxamide] displayed an inhibition at 100 µM above 50%.

In turn, `CCCCOCCOCC(=O)N[C@@H](C)c1ccccc1` [Example 121, (S)-2-(2-butoxyethoxy)-N-(1-phenylethyl)acetamide] showed an inhibition at 100 µM below 20%.

`CCCCCCCCOCCC(=O)Nc1cc(-c2ccccc2)nn1C` [Example 117, N-(1-methyl-3-phenylpyrazol-5-yl)-3-(octyloxy)propanamide] gave an inhibition at 100 µM above 50%.

In turn, `CCCCCCCCCCCC(=O)Nc1cc(C)nn1C(C)(C)C` [Example 30, N-(1-tert-butyl-3-methylpyrazol-5-yl)dodecanamide] came in with an inhibition at 100 µM above 50%.

`CCCCCCCCCCNC(=O)N(C)c1cc(-c2ccccc2)nn1C` [Example 72, 3-decyl-1-methyl-1-(1-methyl-3-phenylpyrazol-5-yl)urea] had an inhibition at 100 µM of 20 to 50%.

`CCCCCCCCCCCC(=O)N1CCC(C(=O)NC)C1` (stereo not drawn) [Example 146, 1-dodecanoyl-N-methylpyrrolidine-3-carboxamide] returned an inhibition at 100 µM above 50%.

As for `CCCCCCCCCCCC(=O)Nc1ccccc1F` [Example 15, N-(2-fluorophenyl)dodecanamide], the inhibition at 100 µM is below 20%.

In the case of `CCCCCCCCCCNC(=O)Nc1cccc(F)c1` [Example 51, 1-decyl-3-(3-fluorophenyl)urea], the inhibition at 100 µM is below 20%.

The compound `CCCCCCCCCCCNC(=O)Nc1cc(C(C)(C)C)nn1C` [Example 81, 1-(3-tert-butyl-1-methylpyrazol-5-yl)-3-undecylurea] came in with an inhibition at 100 µM above 50%.

Compound `CCCCOCCOCC(=O)Nc1cc(C)nn1C` [Example 122, 2-(2-butoxyethoxy)-N-(1,3-dimethylpyrazol-5-yl)acetamide] yielded an inhibition at 100 µM below 20%.

Turning to `CCCCCCCCCC(=O)NC(=O)Nc1ccccc1C(F)(F)F` [Example 96, N-(2-(trifluoromethyl)phenylcarbamoyl)decanamide], the inhibition at 100 µM is below 20%.

`CCCCCCCCCCNC(=O)Nc1cc(C2CC2)nn1C(C)=O` [Example 67, 1-(1-acetyl-3-cyclopropylpyrazol-5-yl)-3-decylurea] showed an inhibition at 100 µM above 50%.

Turning to `CCCCCCCCCCNC(=O)N(C)c1ccc(F)cc1F` [Example 56, 3-decyl-1-(2,4-difluorophenyl)-1-methylurea], the inhibition at 100 µM was below 20%.

`CCCCCCCCCCNC(=O)N(C)c1cccc(F)c1` [Example 52, 3-decyl-1-(3-fluorophenyl)-1-methylurea] returned an inhibition at 100 µM of 20 to 50%.

`CCCCCCCCCCNC(=O)Nc1ccc(F)cc1F` [Example 55, 1-decyl-3-(2,4-difluorophenyl)urea]: the inhibition at 100 µM was below 20%.

`CCCCCCCCCCCCNC(=O)Nc1cc(C2CC2)nn1C` [Example 84, 1-(3-cyclopropyl-1-methylpyrazol-5-yl)-3-dodecylurea] gave an inhibition at 100 µM below 20%.

In turn, `CCCCCCCCCCCC(=O)N1CCC(C(N)=O)CC1` [Example 131, 1-dodecanoylpiperidine-4-carboxamide] returned an inhibition at 100 µM of 20 to 50%.

`CCCCCCCCCCCC(=O)N(C)c1ccccc1C(=O)O` [Example 26, 2-(N-methyldodecanamido)benzoic acid] had an inhibition at 100 µM of 20 to 50%.

`CCCCCCCCCCCC(=O)Nc1ccc(F)cc1` [Example 19, N-(4-fluorophenyl)dodecanamide] displayed an inhibition at 100 µM below 20%.

With `CCN(CC)C(=O)C1CCCN(C(=O)CCCCCCCCCCCSC)C1` (stereo not drawn) [Example 141, N,N-diethyl-1-(12-(methylthio)dodecanoyl)piperidine-3-carboxamide], the inhibition at 100 µM was above 50%.

`CCCCOCCOCC(=O)N(C)c1ccc(F)cc1` [Example 119, 2-(2-butoxyethoxy)-N-(4-fluorophenyl)-N-methylacetamide] registered an inhibition at 100 µM below 20%.

On to `CCCCCCCCCC(=O)NCc1ccco1` [Example 29, N-(furan-2-ylmethyl)decanamide], for which the inhibition at 100 µM lay in the range of 20 to 50%.

For the compound `CCCCCCCCCCNC(=O)Nc1cc(C2CC2)n[nH]1` [Example 65, 1-(3-cyclopropylpyrazol-5-yl)-3-decylurea], the inhibition at 100 µM was above 50%.

In turn, `CCCCCCCCCCCC(=O)Nc1ccccc1C(=O)O` [Example 25, 2-dodecanamidobenzoic acid] showed an inhibition at 100 µM above 50%.

`CCCCCCCCCC(=O)NC(=O)N(C)c1ccc(F)cc1` [Example 95, N-((4-fluorophenyl)(methyl)carbamoyl)decanamide] yielded an inhibition at 100 µM above 50%.

Regarding `CCCCCCCCOCCC(=O)Nc1cc(C)nn1C` [Example 114, N-(1,3-dimethylpyrazol-5-yl)-3-(octyloxy)propanamide], the inhibition at 100 µM fell in the range of 20 to 50%.

Turning to `CCCCCCCCCCCC(=O)N1CCCC(C(=O)NC)C1` (stereo not drawn) [Example 132, 1-dodecanoyl-N-methylpiperidine-3-carboxamide], the inhibition at 100 µM was above 50%.

The compound `CCCCCCNC(=O)Nc1cc(C(C)(C)C)nn1C` [Example 43, 1-(3-tert-butyl-1-methylpyrazol-5-yl)-3-hexylurea] gave an inhibition at 100 µM of 20 to 50%.

Regarding `CCCCCCCCCCNC(=O)Nc1nc(C(C)(C)C)cs1` [Example 78, 1-(4-tert-butylthiazol-2-yl)-3-decylurea], the inhibition at 100 µM is 20 to 50%.

Compound `CCN(CC)C(=O)C1CCCN(C(=O)CCCCCCCCCCCS(C)(=O)=O)C1` (stereo not drawn) [Example 142, N,N-diethyl-1-(12-(methylsulfonyl)dodecanoyl)piperidine-3-carboxamide] displayed an inhibition at 100 µM of 20 to 50%.

`CCCCCCCCCCNC(=O)N(C)c1cc(C(C)(C)C)nn1C` [Example 69, 1-(3-tert-butyl-1-methylpyrazol-5-yl)-3-decyl-1-methylurea] displayed an inhibition at 100 µM above 50%.

On to `CCCCOCCOCC(=O)Nc1cc(C)ns1` [Example 123, 2-(2-butoxyethoxy)-N-(3-methylisothiazol-5-yl)acetamide], for which the inhibition at 100 µM is below 20%.

With `CCCCCCCCCOCC(=O)Nc1cc(C2CC2)nn1C` [Example 106, N-(3-cyclopropyl-1-methylpyrazol-5-yl)-2-(nonyloxy)acetamide], the inhibition at 100 µM was above 50%.

Take `CCCCCCCCCCNC(=O)Nc1nnc(C2CC2)s1` [Example 75, 1-(5-cyclopropyl-1,3,4-thiadiazol-2-yl)-3-decylurea]: the inhibition at 100 µM was in the range of 20 to 50%.

`CCCCCCCCCCNC(=O)Nc1cc(C2CC2)nn1C` [Example 66, 1-(3-cyclopropyl-1-methylpyrazol-5-yl)-3-decylurea] displayed an inhibition at 100 µM above 50%.

On to `COCCOCCOCC(=O)Nc1ccc(F)cc1C(F)(F)F` [Example 126, N-(4-fluoro-2-(trifluoromethyl)phenyl)-2-(2-(2-methoxyethoxy)ethoxy)acetamide], for which the inhibition at 100 µM is below 20%.

On to `CCCCCCCCCC(=O)NC(=O)N[C@H](C)c1ccccc1` [Example 98, (R)-N-(1-phenylethylcarbamoyl)decanamide], for which the inhibition at 100 µM is above 50%.

`CCCCCCCCCCNC(=O)Nc1cc(C)nn1-c1ccccc1` [Example 74, 1-decyl-3-(3-methyl-1-phenylpyrazol-5-yl)urea] yielded an inhibition at 100 µM below 20%.

For `CCCCCCCCCCNC(=O)Nc1cc(C)ns1` [Example 62, 1-decyl-3-(3-methylisothiazol-5-yl)urea], the inhibition at 100 µM is below 20%.

Consider `CCCCCCCCCCCNC(=O)Nc1cc(C2CC2)nn1C` [Example 80, 1-(3-cyclopropyl-1-methylpyrazol-5-yl)-3-undecylurea], for which the inhibition at 100 µM lay in the range of 20 to 50%.

`CCCCCCCCCCCCCCCCCCNC(=O)Nc1cc(C2CC2)nn1C` [Example 93, 1-(3-cyclopropyl-1-methyrpyrazol-5-yl)-3-octadecylurea] registered an inhibition at 100 µM below 20%.
